16 compounds from PubChem BioAssay (NCI) can be followed below.

Assay in all cases: growth of human tumour cells (NCI), 48 h
The test system of assay [1] is SN12C renal.
Assay [2] relates to A549 NSCLC.
The test system of assay [3] is SK-MEL-2 melanoma.
The subject of assay [4] is TK-10 renal.
In assay [5] the test system is HL-60(TB) leukemia.
The subject of assay [6] is SF-539 CNS.
The subject of assay [7] is NCI-H460 lung.
Assay [8] deals with OVCAR-3 ovarian.
Assay [9] relates to MDA-MB-435.

The structures appear in SMILES notation.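 A five-concentration, 48-hour dose response in 96-well plates underlies each endpoint, interpolated linearly between surrounding concentrations. GI50 is the concentration that inhibits growth by half. TGI: total growth inhibition.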

With `N#Cc1ccc(Sc2nc3ccccc3[nH]2)cc1`, the TGI in assay [1], in assay [2], in assay [3], in assay [4], in assay [5] and in assay [6] was greater than 100 µM throughout. Also, in assay [7], the TGI is greater than 100 µM.
In the case of `Cc1ccccc1C(CCCO)C(=O)O` (stereo not drawn), the TGI in [1], in assay [2], in assay [3], in [4], in assay [5] and in assay [8] was greater than 100 µM throughout. In addition, the TGI in [6] and in assay [7] was greater than 100 µM in each case.
For `O=C(c1ccccc1)[C@H]1Nc2ccc(Cl)cc2[C@H]2CCC[C@@H]12`, the TGI was 92.5 µM in [1]; greater than 100 µM in [2]; 49.5 µM in assay [3]; greater than 100 µM in [4]; 68.6 µM in assay [8]; greater than 100 µM in [6]. The TGI in assay [7] was 88 µM.
`CCOC(=O)/C(=C/c1ccccn1)C(=O)c1ccccc1`: the TGI was 27.2 µM in [1]; 44.5 µM in assay [2]; 28.9 µM in assay [3]; 32.3 µM in assay [4]; 5.3 µM in assay [5]; 27.4 µM in assay [8]. The TGI in assay [6] is 31 µM; in [7] it was greater than 62.8 µM.
Take `COc1cc(OC)c(OC)cc1/C=C/c1nc2ccccc2s1`: the TGI in assay [1], in [2], in assay [3], in assay [4], in assay [5] and in assay [8] was greater than 100 µM in each case. The TGI is 15.1 µM in assay [9], greater than 100 µM in assay [6] and greater than 100 µM in [7].
For the compound `CCOC(=O)C1=C(NC)OCC1=O`, the TGI in assay [1], in [2], in assay [3], in assay [4], in assay [5] and in assay [8] was greater than 100 µM each time. The TGI in [6] and in assay [7] was greater than 100 µM in each case.
Turning to `N#CC1CC(c2ccccc2)Nc2cc(Cl)ccc2N1` (stereo not drawn), the TGI was greater than 100 µM in assay [1]; greater than 100 µM in [2]; greater than 89.2 µM in assay [3]; greater than 100 µM in assay [4]; greater than 100 µM in assay [5]; 57.1 µM in [8]. In addition, the TGI in assay [6] and in assay [7] was greater than 100 µM each time.
On to `CCc1cccc(CC)c1NC(=O)/C(Cl)=C(/Cl)C(=O)O`, for which the TGI in assay [1] is 45.9 µM; in [2] it was greater than 89.6 µM; in [3], greater than 100 µM; in assay [4] it was 50.2 µM; in [5], greater than 67.3 µM; in assay [8], 48.1 µM. Further, the TGI in assay [6] was 49.2 µM; in [7] it was greater than 100 µM.
As for `COc1cc(/C=C2\NC(=O)C(Cc3cc(OC)c(OC)c(C)c3OC)N(C(C)=O)C2=O)c(OC)c(C)c1OC` (stereo not drawn), the TGI in assay [1] is greater than 100 µM; in [2] it was greater than 100 µM; in assay [3] it was greater than 100 µM; in assay [4] it was greater than 100 µM; in assay [5] it was 69.9 µM; in [8], greater than 100 µM. The TGI in assay [6] and in assay [7] was greater than 100 µM throughout.
Turning to `COC(=O)C(C(=O)C(=O)Nc1c(Cl)cc([N+](=O)[O-])cc1Cl)c1csc(-n2nc(C3=CCCCC3)cc2-c2ccccc2)n1` (stereo not drawn), the TGI in assay [1], in assay [2], in assay [3], in assay [4], in [5] and in assay [8] was greater than 100 µM in each case. The TGI in [6] and in [7] was greater than 100 µM throughout.
For `OC(c1ccccc1Br)(c1ccccc1Br)C(F)(F)F`, the TGI in assay [1] is 38.6 µM; in assay [2] it was greater than 100 µM; in assay [3], 35.5 µM; in [4], greater than 100 µM; in [8], 51.7 µM; in assay [6], greater than 100 µM. This compound returned a TGI in assay [7] greater than 100 µM.
In the case of `COc1ccc2nc(NC(=O)C(=O)CC(=O)c3ccc([N+](=O)[O-])cc3)sc2c1`, the TGI in assay [1], in assay [2], in assay [3], in assay [8], in assay [6] and in assay [7] was greater than 100 µM throughout.
`CC(=O)[CH-]C(=O)c1ccccc1.[C-]#[O+].[C-]#[O+].[Ir]`: the GI50 in assay [1], in [2], in [3], in assay [4], in assay [5] and in assay [6] was greater than 100 µM throughout. Further, the GI50 in [7] was greater than 10 µM. The TGI in assay [1], in assay [2], in [3], in assay [4], in assay [5] and in [6] was greater than 100 µM throughout. Besides, in assay [7], the TGI was greater than 10 µM.
Take `CCOC(=O)C1(C)CCC(C(C(=O)O)C(=O)O)CC1=O` (stereo not drawn): the TGI in [1], in assay [2], in [4], in assay [5], in assay [8] and in assay [6] was greater than 100 µM throughout. In [7], this compound returned a TGI greater than 100 µM.
For `COc1ccc(-c2c(C3=NCCCN3)nnn2-c2ccccc2)cc1`, the TGI in assay [1], in assay [2], in [3], in [4], in assay [5] and in assay [8] was greater than 100 µM throughout. Further, the TGI in assay [6] and in assay [7] was greater than 100 µM each time.
Regarding `CCCC(=O)CC(C)C(=O)C(=O)NC12CC3CC(CC(C3)C1)C2` (stereo not drawn), the TGI in [1], in assay [2], in assay [3], in assay [4], in [5] and in assay [8] was greater than 100 µM throughout. This compound had a TGI in assay [7] greater than 100 µM.
